Where two headings read alike, the source gives them in different places.
Columns and labels:
[1] = test system: histological changes in arthritic joints; experiment: histological changes in arthritic joints, prolonged treatment; type: in vivo; conditions: rats
Source text: (§1) WO 02/083624 describes this compound (as Examples 360.31 and 405), process of making the same, as well as treatment of chemokine-related diseases and cancer using the same. Likewise, WO 03/080053 describes the treatment of chemokine-related diseases using this compound.

clinical = conditions: both, human
[2] = clinical study (iii): multiple-dose oral pharmacokinetics, Formulation 1 capsules; type: in vivo, human; conditions: for AUC(0-t): read-out: AUC (0-24 hr) Mean; for Tmax: read-out: Tmax Median
[3] = test system: neutrophil recruitment to the lungs; experiment: neutrophil recruitment to the lungs in response to challenge, oral dosing; type: in vivo; conditions: orally administered
Source text: as §1

[4] = clinical study (ii): single-dose 30 mg, fasted or fed subjects, Formulation 1 capsules; type: in vivo, human; conditions: single oral dose 30 mg; for Cmax / AUC / half-life / Tmax: both sexes, human, plasma, po, 30 mg; for Cmax / AUC / half-life / Tmax / Tf Mean: healthy subjects; for half-life: read-out: t1/2 Mean; for Tmax: read-out: Tmax Median
[5] = both sexes, human, plasma, oral, 10 mg, multiple-dose 10 mg, Day 1
[6] = both sexes, human, plasma, oral, 10 mg, multiple-dose 10 mg, Day 14
[7] = both sexes, human, plasma, oral, 30 mg, multiple-dose 30 mg, Day 1
[8] = both sexes, human, plasma, oral, 30 mg, multiple-dose 30 mg, Day 14
[9] = both sexes, human, plasma, oral, 50 mg, multiple-dose 50 mg, Day 1
[10] = both sexes, human, plasma, oral, 50 mg, multiple-dose 50 mg, Day 14

Vd/F (clinical; in vivo): 1470 to 2200 L | half-life (clinical; plasma, oral): 678 to 1370 min | Cmax [2, 5]: 76 ng/mL | AUC(0-t) [2, 5]: 137 ng·h/mL | Tmax [2, 5]: 30 min | Cmax [2, 6]: 78.1 ng/mL | AUC(0-t) [2, 6]: 156 ng·h/mL | Tmax [2, 6]: 30 min | Cmax [2, 7]: 173 ng/mL | AUC(0-t) [2, 7]: 397 ng·h/mL | Tmax [2, 7]: 30 min | Cmax [2, 8]: 159 ng/mL | AUC(0-t) [2, 8]: 414 ng·h/mL | Tmax [2, 8]: 30 min | Cmax [2, 9]: 239 ng/mL | AUC(0-t) [2, 9]: 681 ng·h/mL | Tmax [2, 9]: 45 min | Cmax [2, 10]: 279 ng/mL | AUC(0-t) [2, 10]: 825 ng·h/mL | Tmax [2, 10]: 30 min | half-life ([2]; both sexes, human, plasma, oral, multiple-dose 50 mg, Day 14, n = 7, read-out: t1/2 Mean (converted)): 828 min | steady state achieved by ([2]; multiple doses): ≤ 11 days | Cmax ([4]; fasted): 147 ng/mL | AUC ([4]; fasted, n = 10, read-out: AUC(I) Mean): 563 ng·h/mL | half-life ([4]; fasted, n = 10): 1250 min | AUC ([4]; fasted, read-out: AUC (tf) Mean): 484 ng·h/mL | Tmax ([4]; fasted): 45 min | Cmax ([4]; fed): 122 ng/mL | AUC ([4]; fed, n = 7, read-out: AUC(I) Mean): 572 ng·h/mL | half-life ([4]; fed, n = 7): 1370 min | AUC ([4]; fed, read-out: AUC (tf) Mean): 489 ng·h/mL | Tmax ([4]; fed): 120 min | mean Cmax with food lower than Compound I alone [4]: 17% | Tf Mean ([4]; fasted): 40 h | Tf Mean ([4]; fed): 32.3 h
SMILES: CC[C@@H](Nc1c(Nc2cccc(C(=O)N(C)C)c2O)c(=O)c1=O)c1ccc(C)o1 [Compound I]
histological changes in arthritic joints [1]: blocks | neutrophil recruitment to the lungs ([3]; mice): effectively blocks | neutrophil recruitment to the lungs ([3]; monkeys): effectively blocks | neutrophil recruitment to the lungs ([3]; rats): effectively blocks
